From US20060121449A1, “Method for selection of compounds which inhibit clonal cell growth and use thereof” (priority 2002, published 2006)
Entries after “also recorded” stand apart in the source; their conditions may differ.

Columns and labels:
HSV2 = HSV2 replication and cytopathogenicity in RK13 cells (Exp 12); format: cell-based, Herpes virus 2; conditions: for Coverage of the bottom read after 24 hours: 1 g = 100% coverage of the bottom; for Cytopathogenicity read after 24 hours: 1d is 100% degeneration
Description: RK13 cells and HSV2 v12225 was obtained from Dr. G. Hoddevik, National Institute of Public Health, Oslo, Virus had been stored at −75° C. It was propagated on RK13 cells.
Then the medium, Eagles MEM with 5% FCS, was removed and replaced by new medium.
The inoculated virus was removed by changing the medium the day before titration. […] 1, esperiment 12.

MT4 cells = assay: Clonal growth of MT4 cells in fluid medium, cross dilution of cells and inhibitor (Exp 14); format: cell-based
Description: Ten fold cell dilutions indicatet in the last row (Table 1) were undertaken in Falcon tissue culture tray using 6×6 wells.
The 4-OH-OPB dilutions were prepared minutes before being used from 20 mM stock solution in DMSO.
The 10 μM and 3 μM dilutions were made first and each of them were diluted further in 1/10 steps.

[1] = system: BHK21/c13 (normal baby hamster kidney cells); assay: Clonal growth of normal BHK21/c13 cells in soft agar with growth factors (Exp 3, 6); format: cell-based; parameters: Clonal inhibition: unit not given here; conditions: for Clonal inhibition: BHK21/c13 + insulin
Description: This experiment used BHK21/c13 cells grown in the Falcon plates with 24 wells. Each well received 120000 cells seeded in a top layer of 0.3 ml with 0.8% ultra low gelling temperature agarose (type IX, Sigma). This layer was placed upon a 0.3 ml bottom layer with 3% of the same agarose. The medium contained Eagles MEM and RPMI 1640 with 10% foetal bovine serum. The medium was supplemented with either: 15% conditioned medium (from BHK21/c13 cultures), the serum extender Mito+ or 0.1 i.u. Insulin Actrapid (Novo) or with two or all three of these in combination.
Agar cultures were prepared in wells of 24 well Falcon tissue culture plate. […] The medium contained about equal amounts of Eagle and RPMI 1640 with 10% FBS. Insulin (Actrapid, Novo) was added in a concentration of 0.1 i.u./ml to BHK21/c13 cell cultures only.

[2] = system: Ehrlich ascites cells injected subcutaneously; assay: Subcutaneously transplanted Ehrlich cells in mice, export of metastatic cells (Exp 9); conditions: for Export (migration) of subcutaneously injected Ehrlich cells to peritoneum in treated animals / Solid tumours at subcutaneous injection sites: Exp 9; for Export (migration) of subcutaneously injected Ehrlich cells to peritoneum in treated animals: i.p. injections twice a week, untreated control developed ascites only
Description: This assay involves different numbers of Ehrlich carcinoma cells injected in six subcutaneous locations of mice that were treated by intraperitoneal injections of the compound tested, e.g. 4-OH-OPB (experiment number 9). […] When operating with different cell numbers in the different injection sites, the number of growing tumours indicated which cell number that is necessary for the development of tumours in treated or untreated animals.
Ehrlich ascites was stored in liquid nitrogen on serum with 10% DMSO. The ampoules were thawed in water of 37° C., diluted in serum, and pelleted by low speed centrifugation after the addition of 2 ml FBS, to remove DMSO.
The cells were diluted in volumes of 0.6 ml RPM (pH about 6.9) for each animal with no serum added. The 4-OH-OPB was injected intraperitonally twice a week, see Table 2.

[3] = Exp 9 mouse 1: 10.5 μl 0.2 M i.p. (est. extracell. conc. 281)
[4] = Exp 9 mouse 1: 10.5 μl 0.2 M i.p. twice a week (est. extracell. conc. 281)
[5] = Exp 9 mouse 3: 9.6 μl 20 mM i.p. (27.9)
[6] = Exp 9 mouse 3: 9.6 μl 20 mM i.p. twice a week (27.9)
[7] = Exp 9 mouse 4: 1.37 μl 20 mM i.p. (2.8)

CCCCC1(O)C(=O)N(c2ccccc2)N(c2ccc(O)cc2)C1=O (stereo not shown) [4-OH-OPB, 4-butyl-4-hydroxy-2(p-hydroxyphenyl)-1-phenyl-3,5-pyrazolidinedione]
Concentrations with inhibited production of HSV2 (HSV2): above 0.1 μM | Coverage of the bottom read after 24 hours (HSV2; 2 μl/well, 0.1 μM): 1 g | Cytopathogenicity read after 24 hours (HSV2; 2 μl/well, 0.1 μM): 0.6 days | Coverage of the bottom read after 24 hours (HSV2; 2 μl/well, 0.3 μM): 1 g | Cytopathogenicity read after 24 hours (HSV2; 2 μl/well, 0.3 μM): 0.7 days | Coverage of the bottom read after 24 hours (HSV2; 2 μl/well, 1 μM): 1 g | Cytopathogenicity read after 24 hours (HSV2; 2 μl/well, 1 μM): 0.7 days | Coverage of the bottom read after 24 hours (HSV2; 2 μl/well, 3 μM): 0.8 g | Cytopathogenicity read after 24 hours (HSV2; 2 μl/well, 3 μM): 0.95 days | Coverage of the bottom read after 24 hours (HSV2; 2 μl/well, 10 μM): 0.9 g | Cytopathogenicity read after 24 hours (HSV2; 2 μl/well, 10 μM): 0.95 days | Coverage of the bottom read after 24 hours (HSV2; 2 μl/well, 30 μM): 0.7 g | Cytopathogenicity read after 24 hours (HSV2; 2 μl/well, 30 μM): 0.2 days | Coverage of the bottom read after 24 hours (HSV2; 8 μl/well, 0.1 μM): 1 g | Cytopathogenicity read after 24 hours (HSV2; 8 μl/well, 0.1 μM): 0.9 days | Coverage of the bottom read after 24 hours (HSV2; 8 μl/well, 0.3 μM): 1 g | Cytopathogenicity read after 24 hours (HSV2; 8 μl/well, 0.3 μM): 0.9 days | Coverage of the bottom read after 24 hours (HSV2; 8 μl/well, 1 μM): 1 g | Cytopathogenicity read after 24 hours (HSV2; 8 μl/well, 1 μM): 0.9 days | Coverage of the bottom read after 24 hours (HSV2; 8 μl/well, 3 μM): 0.8 g | Cytopathogenicity read after 24 hours (HSV2; 8 μl/well, 3 μM): 0.95 days | Coverage of the bottom read after 24 hours (HSV2; 8 μl/well, 10 μM): 0.86 g | Cytopathogenicity read after 24 hours (HSV2; 8 μl/well, 10 μM): 0.95 days | Coverage of the bottom read after 24 hours (HSV2; 8 μl/well, 30 μM): 0.7 g | Cytopathogenicity read after 24 hours (HSV2; 8 μl/well, 30 μM): 0.2 days | Inhibition of HSV2 titre at 3 μM (HSV2; titration incubated for 3 days): about 3 log | Concentration needed for arresting colony growth: less in cultures with 5000 cells than with 500000 cells (MT4 cells): about 2 logs | Clonal inhibition ([1]; 0.3 μM added after 24 hours, read after 48 hours): 0 | Clonal inhibition ([1]; 0.3 μM added immediately, read after 24 hours): 0 | Clonal inhibition ([1]; 0.3 μM added immediately, read after 48 hours): 0 | Clonal inhibition ([1]; 1 μM added after 24 hours, read after 48 hours): 0 | Clonal inhibition ([1]; 1 μM added immediately, read after 24 hours): 0 | Clonal inhibition ([1]; 1 μM added immediately, read after 48 hours): 0 | Clonal inhibition ([1]; 3 μM added after 24 hours, read after 48 hours): 0 | Clonal inhibition ([1]; 3 μM added immediately, read after 24 hours): 0 | Clonal inhibition ([1]; 3 μM added immediately, read after 48 hours): 0 | Clonal inhibition ([1]; 10 μM added after 24 hours, read after 48 hours): 0 | Clonal inhibition ([1]; 10 μM added immediately, read after 24 hours): + | Clonal inhibition ([1]; 10 μM added immediately, read after 48 hours): + | Clonal inhibition ([1]; 30 μM added after 24 hours, read after 48 hours): 0 | Clonal inhibition ([1]; 30 μM added immediately, read after 24 hours): +++ | Clonal inhibition ([1]; 30 μM added immediately, read after 48 hours): ++ | Effect when treated first after 24 hours ([1]; Exp 6, BHK21/c13): no effect was detected | Concentration with small, but significant effect on clonal inhibition ([1]; Exp 6, BHK21/c13, treated immediately on seeding, photograph after 24 hours): ≥ 10 µM | Export (migration) of subcutaneously injected Ehrlich cells to peritoneum in treated animals [2]: did not get ascites with tumour cells, only solid tumours; also recorded: no spread of tumour cells from these subcutaneous injection sites were found in peritoneum; also recorded: effective in stopping migration of tumour cells to peritoneum; also recorded: None of the treated ones got ascites | Export (migration) of subcutaneously injected Ehrlich cells to peritoneum in treated animals ([2]; listed as 4-OH—OPB): Found inhibition on metastatic | Solid tumours at subcutaneous injection sites ([2]; the two mice receiving smaller doses): only one tumour | Solid tumours at subcutaneous injection sites ([2]; very high dose mouse, sites with 6250 and 31250 cells): two tumours of the abdominal wall | Toxic effects of the very high dose ([2]; Exp 9 mouse 1: 10.5 μl 0.2 M i.p.): caused adherences in peritoneum; also recorded: liver, spleen and possibly kidneys became affected by its toxicity; also recorded: died of haemorrhagic effusion in thorax | Day 21, pathology [2, 3]: Ascites | Pathology after 24 days [2, 3]: Ascites or thoracic fluid did not contain Ehrlich cells | Pathology after 24 days ([2]; Exp 9 mouse 1: 10.5 μl 0.2 M i.p. (est. extracell. conc. 281), listed as 4-OH—OPB): number developed solid tumours; also recorded: Toxic ascites and thoracic | Clinical status, day 14 [2, 4]: No Ehrlich | Day 3-7, clinical status [2, 4]: no tumour | Weight, day 18 ([2]; Exp 9 mouse 1: 10.5 μl 0.2 M i.p. twice a week, initial weight 26.2): 37.4 g | Animal weight after 24 days ([2]; Exp 9 mouse 1: 10.5 μl 0.2 M i.p., initial weight 26.2): 40.2 g | Day 21, pathology [2, 5]: Lens sized | Pathology after 24 days [2, 5]: Ascites or organ tumours were not found | Pathology after 24 days ([2]; Exp 9 mouse 3: 9.6 μl 20 mM i.p. (27.9), listed as 4-OH—OPB): Pea sized tumour in left | Clinical status, day 14 [2, 6]: No tumour | Clinical status, day 18 [2, 6]: No tumour | Animal weight after 24 days ([2]; Exp 9 mouse 3: 9.6 μl 20 mM i.p., initial weight 24.1): 25 g | Day 21, pathology [2, 7]: Small tumour | Pathology after 24 days [2, 7]: slightly observable tumour in the abdominal wall | Pathology after 24 days ([2]; Exp 9 mouse 4: 1.37 μl 20 mM i.p. (2.8), listed as 4-OH—OPB): days ago, now lens sized. | Animal weight after 24 days ([2]; Exp 9 mouse 4: 1.37 μl 20 mM i.p., initial weight 34.2): 33.5 g. Tumour as discovered 3 | Estimated concentration in extracellular fluid at which serious toxicity occurs ([2]; extracellular fluid calculated as 2/7 of the animal weight): 280 µM
